Laboratory results reported in publication PMC10301845, “Characterization of a Novel M4 PAM PET Radioligand [11C]PF06885190 in Nonhuman Primates (NHP)” (Molecules, 2023).

Test: Radiometabolite analysis in NHP blood plasma (gradient HPLC)
Type: in vivo, cynomolgus monkey
Experimental: Radiometabolites in NHP blood plasma were analyzed following a previously published method. A reverse-phase HPLC system with an UV absorbance detector (ƛ = 254 nm) coupled to a radio detector was used to determine the percentages of radioactivity corresponding to [^11C]PF06885190 and its radioactive metabolites during whole PET measurement. Arterial blood samples (0.7–1.5 mL) were obtained using an automated blood sampling system from the monkey at different time points such as 2, 5, 15, 30 and 60 min after injection of [^11C]PF06885190 following a previously described method. Plasma was separated from collected blood by centrifuging at 4000 rpm for 2 min. The obtained plasma was diluted with 1.4 times volume of acetonitrile and then centrifuged at 6000 rpm for 4 min. The extract was separated from the pellet and was diluted with water (3 mL) before being injected into the HPLC system. The HPLC system was coupled to an Agilent binary pump (Agilent 1200 series) which was connected to a manual injection valve (7725i, Rheodyne), a 5.0 mL loop, and a radiation detector (Oyokoken, S-2493Z) housed in a shield of 50 mm thick lead. A semi-preparative reverse-phase, an ACE 5µm C18 HL column ([…]), was used to achieve the chromatographic separation (Figure S4A,B, Supplementary Material) of the radiometabolites from the unchanged parent compound [^11C]PF06885190 by gradient elution. Acetonitrile (A) and 0.1 M amoniumformate (B) were used as the mobile phase at flow rate 5.0 mL/min, according to the following program: 0−4.0 min, (A/B) 40:60 → 90:10 v/v; 4.0−6.0 min, (A/B) 90:10 v/v. a radioactive peak corresponding to [^11C]PF06885190 eluted from the HPLC column was integrated and the area was expressed as a percentage of the sum of the areas of all detected radioactive compounds. To calculate the recovery of radioactivity from the system, the eluate from the HPLC column was measured in a capintec dose calibrator and divided by the amount of total radioactivity injected into the HPLC.

Cc1nc(N[11CH3])c2c(c1C)CN(C(=O)C[C@H]1C[C@@H]1c1ccc(F)nc1)C2 [[^11C]PF06885190]
parent compound in plasma (5 min after injection): approximately 95% | parent compound in plasma (60 min, after pretreatment with CVL-231): about 20% | parent compound in plasma (60 min, after pretreatment with donepezil): about 30% | parent compound in plasma (60 min, baseline condition): about 20%
